Values after ≈ are worked out from the molar mass of the structure shown.
Experiments:
HeLa S3 cells = test: Growth inhibition to Hela S3 cells (Neutral Red staining, 72 hours); type: cell-based; conditions: Homo sapiens, 37° C., MEM with 10% fetal bovine serum, 550 nm
Procedure: (§1) Growth inhibition to Hela S3 cells
(§2) 0.1 Milliliter of a test compound properly diluted with an MEM culture containing 10% fetal bovine serum and 2 mM of glutamine was placed in each of 96 wells of a microtiter plate. Then, trypsinized HeLa S3 cells (ATCC HTB22) were adjusted with the above culture to form a solution containing 3×10^4 cells/ml, and 0.05 ml of the solution was added to each well.
(§3) The above plate was cultured in a carbonic acid gas incubator at 37° C. for 72 hours, and then culture supernatants were removed. 0.1 Milliliter of a culture medium containing 0.02% Neutral Red was added to each well, and the plate was cultured in the carbonic acid gas incubator at 37° C. for 1 hour to stain the cells. After culture supernatants were removed, the remainders were once washed with a physiological saline solution. Then, the dyestuff was extracted with 0.001N hydrochloric acid/30% ethanol, and the absorbance at 550 nm was measured with a microplate reader. In comparison between the absorbance of untreated cells and the absorbance of cells treated with the known concentration of the test compound, the growth inhibition ratio of the cells was calculated on the basis of the following equation. [formula] A: Absorbance of cells treated with the compound B: Absorbance of a well containing no cells
(§4) C: Absorbance of untreated cells […]

growing cells = test: cell cycle analyzed with a flow cytometer; type: cell-based
Solubility = type: physicochemical
cultured tumor cells = test: antitumor activity against cultured tumor cells (summary statement); type: cell-based
Procedure: as §1, §2, §3, §4

[1] = Experientia 44, 230, (1988); cited from earlier work

| IC50 (HeLa S3 cells) | Solubility (Solubility; in acidic water) | Structure (SMILES) | cell cycle effect (growing cells) | Solubility (Solubility; in methanol, ethyl acetate, chloroform and DMSO) | antitumor activity (cultured tumor cells) | antitumor activity [1] |
| --- | --- | --- | --- | --- | --- | --- |
| 87 µg/mL (≈ 271 µM) | Sparingly soluble in acidic water | CC(=CC(=O)O)CC[C@@]1(C)[C@H](CO)CC[C@@]2(C)C(C)=CCC[C@H]12 [novel physiologically active substance] | terminated the growing cells at S phase and destroyed them | Soluble in methanol, ethyl acetate, chloroform and DMSO | exhibits antitumor activity against cultured tumor cells | – |
| – | – | O=C(/C=C/c1ccc(O)c(O)c1)OCCc1ccccc1 [phenetyl cafeate] | – | – | – | has antitumor activity |

From US5276177A, “Physiologically active substance” (Matsuno; Tetsuya, priority 1991, dated 1994)
